Assay results published in patent publication US7118895B2, “Process for producing aglycon by using diglycosidase and flavor-improved food containing the aglycon and converting agent to be used in the process” (Amano Enzyme Inc., priority 2000, dated 2006).

System: Crude diglycosidase
Assay: Examination of pH in the conversion into isoflavone aglycons by diglycosidase using soybean materials
Assay type: biochemical, Penicillium multicolor IAM7153
Set-up: Decomposition efficiency of genistin family in soymilk / Decomposition efficiency of genistin family in defatted soybean / Decomposition efficiency of daidzin family in defatted soybean: concentration or dose not given beside the values
Conditions: for Decomposition efficiency of genistin family in roasted soy flour: 55° C.
Protocol: A substrate solution of 450 μL was prepared by suspending 50 mg of each soybean material (roasted soy flour (manufactured by Fuji Shokuryo K.K.), soymilk (manufactured by Gitoh Shokuhin K.K.), defatted soybean (manufactured by Fuji Seiyu K.K.), concentrated soybean protein (manufactured by Fuji Seiyu K.K.)), and adjusting the pH to 2 to 11 with hydrochloric acid or sodium hydroxide. Each enzyme solution of pH 2–11 wherein diglycosidase activity of crude diglycosidase was adjusted to 1.88 AU/mL was added thereto in an amount of 50 μL and the whole was reacted at 55° C. at the total volume of 500 μL. To the reaction mixture was added 700 μL of ethanol after 0, 1, 3, and 6 hours of the reaction. After stirring and ultrasonication, the mixture was subjected to centrifugal separation at 15,000 rpm and 4° C. for 10 minutes. The supernatant was filtered through a filter and the existence of isoflavone glycosides and aglycon isoflavones contained in the reaction mixture was detected by HLPC (Tables 15 to 26).

[1] = pH6.6, heat treatment of enzyme: no, reaction time 0 h
[2] = pH6.6, heat treatment of enzyme: no, reaction time 1 h
[3] = pH6.6, heat treatment of enzyme: no, reaction time 3 h
[4] = pH6.6, heat treatment of enzyme: no, reaction time 6 h
[5] = pH6.6, heat treatment of enzyme: yes, reaction time 6 h

CC(=O)OC[C@H]1O[C@@H](Oc2cc(O)c3c(=O)c(-c4ccc(O)cc4)coc3c2)[C@H](O)[C@@H](O)[C@@H]1O [acetylgenistin, 6″-O-acetylgenistin]
Decomposition efficiency of genistin family in roasted soy flour (pH5, heat treatment of enzyme no, reaction time 0 h): 45.4 | Decomposition efficiency of genistin family in roasted soy flour (pH5, heat treatment of enzyme no, reaction time 1 h): 39.9 | Decomposition efficiency of genistin family in roasted soy flour (pH5, heat treatment of enzyme no, reaction time 3 h): 26.9 | Decomposition efficiency of genistin family in roasted soy flour (pH5, heat treatment of enzyme no, reaction time 6 h): 17.6 | Decomposition efficiency of genistin family in roasted soy flour (pH5, heat treatment of enzyme yes, reaction time 6 h): 42.0 | Decomposition efficiency of genistin family in concentrated soybean protein (pH5.1, heat treatment of enzyme: no, reaction time 0 h): 43.1% | Decomposition efficiency of genistin family in concentrated soybean protein (pH5.1, heat treatment of enzyme: no, reaction time 1 h): 45.2% | Decomposition efficiency of genistin family in concentrated soybean protein (pH5.1, heat treatment of enzyme: no, reaction time 3 h): 40.2% | Decomposition efficiency of genistin family in concentrated soybean protein (pH5.1, heat treatment of enzyme: no, reaction time 6 h): 35.6% | Decomposition efficiency of genistin family in concentrated soybean protein (pH5.1, heat treatment of enzyme: yes, reaction time 6 h): 42.4% | Decomposition efficiency of genistin family in defatted soybean (pH5.4, heat treatment of enzyme: no, reaction time 0 h): 1.8% | Decomposition efficiency of genistin family in defatted soybean (pH5.4, heat treatment of enzyme: no, reaction time 1 h): 0.5% | Decomposition efficiency of genistin family in defatted soybean (pH5.4, heat treatment of enzyme: no, reaction time 3 h): not detected | Decomposition efficiency of genistin family in defatted soybean (pH5.4, heat treatment of enzyme: no, reaction time 6 h): not detected | Decomposition efficiency of genistin family in defatted soybean (pH5.4, heat treatment of enzyme: yes, reaction time 6 h): not detected | Decomposition efficiency of genistin family in soymilk (pH6.2, heat treatment of enzyme: no, reaction time 0 h): 0.5% | Decomposition efficiency of genistin family in soymilk (pH6.2, heat treatment of enzyme: no, reaction time 1 h): not detected | Decomposition efficiency of genistin family in soymilk (pH6.2, heat treatment of enzyme: no, reaction time 3 h): not detected | Decomposition efficiency of genistin family in soymilk (pH6.2, heat treatment of enzyme: no, reaction time 6 h): not detected | Decomposition efficiency of genistin family in soymilk (pH6.2, heat treatment of enzyme: yes, reaction time 6 h): 0.6% | Decomposition efficiency of genistin family in roasted soy flour (pH6.5, heat treatment of enzyme no, reaction time 0 h): 45.8 | Decomposition efficiency of genistin family in roasted soy flour (pH6.5, heat treatment of enzyme no, reaction time 1 h): 45.3 | Decomposition efficiency of genistin family in roasted soy flour (pH6.5, heat treatment of enzyme no, reaction time 3 h): 38.8 | Decomposition efficiency of genistin family in roasted soy flour (pH6.5, heat treatment of enzyme no, reaction time 6 h): 34.0 | Decomposition efficiency of genistin family in roasted soy flour (pH6.5, heat treatment of enzyme yes, reaction time 6 h): 39.2 | Decomposition efficiency of genistin family in concentrated soybean protein [1]: 43.0% | Decomposition efficiency of genistin family in defatted soybean [1]: 1.7% | Decomposition efficiency of genistin family in concentrated soybean protein [2]: 43.6% | Decomposition efficiency of genistin family in defatted soybean [2]: 0.6% | Decomposition efficiency of genistin family in concentrated soybean protein [3]: 42.8% | Decomposition efficiency of genistin family in defatted soybean [3]: 0.3% | Decomposition efficiency of genistin family in concentrated soybean protein [4]: 41.0% | Decomposition efficiency of genistin family in defatted soybean [4]: 0.2% | Decomposition efficiency of genistin family in concentrated soybean protein [5]: 40.6% | Decomposition efficiency of genistin family in defatted soybean [5]: 0.2% | Decomposition efficiency of genistin family in soymilk (pH7.2, heat treatment of enzyme: no, reaction time 0 h): 0.7% | Decomposition efficiency of genistin family in soymilk (pH7.2, heat treatment of enzyme: no, reaction time 1 h): not detected | Decomposition efficiency of genistin family in soymilk (pH7.2, heat treatment of enzyme: no, reaction time 3 h): not detected | Decomposition efficiency of genistin family in soymilk (pH7.2, heat treatment of enzyme: no, reaction time 6 h): not detected | Decomposition efficiency of genistin family in soymilk (pH7.2, heat treatment of enzyme: yes, reaction time 6 h): 0.7% | Decomposition efficiency of genistin family in defatted soybean (pH7.8, heat treatment of enzyme: no, reaction time 0 h): 1.6% | Decomposition efficiency of genistin family in defatted soybean (pH7.8, heat treatment of enzyme: no, reaction time 1 h): 1.0% | Decomposition efficiency of genistin family in defatted soybean (pH7.8, heat treatment of enzyme: no, reaction time 3 h): 0.8% | Decomposition efficiency of genistin family in defatted soybean (pH7.8, heat treatment of enzyme: no, reaction time 6 h): 0.7% | Decomposition efficiency of genistin family in defatted soybean (pH7.8, heat treatment of enzyme: yes, reaction time 6 h): 0.6% | Decomposition efficiency of genistin family in roasted soy flour (pH8.5, heat treatment of enzyme no, reaction time 0 h): 39.5 | Decomposition efficiency of genistin family in roasted soy flour (pH8.5, heat treatment of enzyme no, reaction time 1 h): 39.5 | Decomposition efficiency of genistin family in roasted soy flour (pH8.5, heat treatment of enzyme no, reaction time 3 h): 39.2 | Decomposition efficiency of genistin family in roasted soy flour (pH8.5, heat treatment of enzyme no, reaction time 6 h): 37.3 | Decomposition efficiency of genistin family in roasted soy flour (pH8.5, heat treatment of enzyme yes, reaction time 6 h): 35.2 | Decomposition efficiency of genistin family in concentrated soybean protein (pH8.6, heat treatment of enzyme: no, reaction time 0 h): 39.7% | Decomposition efficiency of genistin family in concentrated soybean protein (pH8.6, heat treatment of enzyme: no, reaction time 1 h): 38.8% | Decomposition efficiency of genistin family in concentrated soybean protein (pH8.6, heat treatment of enzyme: no, reaction time 3 h): 39.0% | Decomposition efficiency of genistin family in concentrated soybean protein (pH8.6, heat treatment of enzyme: no, reaction time 6 h): 38.5% | Decomposition efficiency of genistin family in concentrated soybean protein (pH8.6, heat treatment of enzyme: yes, reaction time 6 h): 37.6% | Decomposition efficiency of genistin family in soymilk (pH11.6, heat treatment of enzyme: no, reaction time 0 h): 0.5% | Decomposition efficiency of genistin family in soymilk (pH11.6, heat treatment of enzyme: no, reaction time 1 h): not detected | Decomposition efficiency of genistin family in soymilk (pH11.6, heat treatment of enzyme: no, reaction time 3 h): not detected | Decomposition efficiency of genistin family in soymilk (pH11.6, heat treatment of enzyme: no, reaction time 6 h): not detected | Decomposition efficiency of genistin family in soymilk (pH11.6, heat treatment of enzyme: yes, reaction time 6 h): 0.9%
